The target of this assay is Phospholipase A2 (Sus scrofa) (UniProt P00592+P04416). In words: Binding affinity to Sus scrofa (pig) PLA2 isolated from pancreas by isothermal titration calorimetric analysis. Format: protein assay. On the technique in general: Isothermal titration calorimetry measures the heat released or taken up as one component is titrated into another.

This passage reports K results from ChEMBL document CHEMBL3045988, “Computational and thermodynamic analyses of the phospholipase A2 inhibition by erucic acid and linoleic acid” (Med Chem Res, 2013).

Phospholipase A2 (Sus scrofa), sequence (P00592 whole entry, looked up): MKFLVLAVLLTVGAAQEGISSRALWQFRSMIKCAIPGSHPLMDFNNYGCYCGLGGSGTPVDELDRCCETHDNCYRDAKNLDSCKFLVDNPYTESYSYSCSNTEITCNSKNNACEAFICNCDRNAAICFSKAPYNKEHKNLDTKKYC
Phospholipase A2 (Sus scrofa), sequence (P04416 whole entry, looked up): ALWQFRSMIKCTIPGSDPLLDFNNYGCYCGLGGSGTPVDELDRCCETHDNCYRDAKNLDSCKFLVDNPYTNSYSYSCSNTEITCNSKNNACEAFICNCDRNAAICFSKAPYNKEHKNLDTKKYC

As for `CCCCC/C=C\C/C=C\CCCCCCCC(=O)O`, the K stood at 1.15 ×10⁴ /M.

As to `CCCCCCCC/C=C\CCCCCCCCCCCC(=O)O`, the K is 23.3 ×10⁴ /M.
